Data as given in patent US4900672A, “Method for preservation of nitrile hydration activity” (Nitto Kagaku Kogyo Kabushiki Kaisha, priority 1986, dated 1990).

Legend:
nitrile hydratase [1] = target: T1, nitrile hydratase (Pseudomonas chlororaphis, UniProt P27763+P27764); test: Preservation of nitrile hydration activity of enzyme immobilized on DEAE-Cellulofine AM left standing; assay type: biochemical, Pseudomonas chlororaphis B23 (FERM BP-187); conditions: Table 8
T1 sequence (P27764 1-200): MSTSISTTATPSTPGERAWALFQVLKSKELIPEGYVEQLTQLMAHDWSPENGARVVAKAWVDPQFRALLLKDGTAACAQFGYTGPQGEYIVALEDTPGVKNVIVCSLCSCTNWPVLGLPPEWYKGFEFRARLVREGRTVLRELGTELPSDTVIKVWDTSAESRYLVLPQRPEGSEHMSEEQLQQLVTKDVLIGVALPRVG
T1 sequence (P27763 1-220): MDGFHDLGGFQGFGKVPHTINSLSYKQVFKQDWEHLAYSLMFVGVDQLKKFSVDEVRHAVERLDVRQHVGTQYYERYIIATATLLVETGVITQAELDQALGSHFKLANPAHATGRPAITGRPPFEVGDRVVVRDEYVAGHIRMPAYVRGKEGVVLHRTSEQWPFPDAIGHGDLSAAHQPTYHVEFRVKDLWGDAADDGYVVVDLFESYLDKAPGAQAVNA
Experimental: 25 ml each of a cell extract containing ammonium isobutyrate and a control cell extract containing no ammonium isobutyrate prepared as in Example 95 and comparison Example 11 were mixed with 15 g each of DEAE-Cellulofine AM (supplied by Seikagaku Kogyo Co., Ltd., Japan) equilibrated with M/20 phosphate buffer (pH 7.7). The mixture was stirred at 0° C. for 90 minutes to immobilize the enzymes.
The results are presented in Table 8 in which the protein levels in the immobilized enzymes were determined in accordance with the procedure of Lowry et al.

nitrile hydratase [2] = target: T1, nitrile hydratase; test: Preservation of nitrile hydration activity of polyacrylamide gel-immobilized cells left standing; assay type: cell-based, Pseudomonas chlororaphis B23 (FERM BP-187); conditions: Table 7
Experimental: 40 ml of washed cells (water content 75%) prepared as in Example 1, 4.5 g of acrylamide, 0.5 g of N,N'-methylenebisacrylamide, and 40 ml of M/20 phosphate buffer (containing 10 g/l of ammonium isobutyrate, pH 6.0) were mixed to form a homogeneous suspension. To this suspension were added 5 ml of a 5% aqueous solution of dimethylaminopropionitrile and 10 ml of a 1% aqueous solution of potassium persulfate, and the mixture was maintained at 10° C. for 30 minutes to cause polymerization. A mass of cell-containing gel obtained was crushed into small particles, which were thoroughly washed with M/20 phosphate buffer containing 5 g/l of ammonium isobutyrate, pH 7.0, whereby approximately 90 g of immobilized cells were obtained.
The washed, immobilized cells thus obtained were placed in the same buffer containing 5 g/l of isobutyric acid and left standing at 0° C. for 5 days. […]
The nitrile hydration activity levels of the gel samples were measured as follows before and after the respective immobilized cells were left standing.
1 g of immobilized gel was mixed with 5 g of acrylonitrile and 97 ml of M/20 phosphate buffer (pH 7.7), and the mixture was subjected to reaction at 0° C. for 20 minutes with stirring. The quantities of acrylamide in the respective reaction solutions were determined by gas chromatography.

nitrile hydratase [3] = target: T1, nitrile hydratase; test: Preservation of nitrile hydration activity of cell extract (crude enzyme solution) left standing; assay type: biochemical, Pseudomonas chlororaphis B23 (FERM BP-187); conditions: Table 6
Experimental: The resultant cell suspension was pressed in a French press (fabricated by Ohtake Seisakusho, Japan) to crush cells under a pressure of 1,000 to 1,500 kg G and then subjected to centrifugation (12,000 rpm, 30 minutes) to remove uncrushed cells and insolubles such as cell walls, whereby a cell extract, i.e. a crude enzyme solution, was obtained.
For comparison purposes, a similar cell suspension (3.2×10^3 U/ml) which contained no ammonium isobutyrate was prepared and subjected to a French press treatment and centrifugation under similar conditions, whereby a control cell extract was obtained.

Compound: CC(C)C(=O)O.N [Ammonium Isobutyrate, ammonium isobutyrate]
- Activity Before Being Left Standing (nitrile hydratase [1]; enzyme immobilized on DEAE-Cellulofine AM, control without: 4.6): 19.4
- Activity After Being Left Standing (nitrile hydratase [1]; immobilized enzyme, 3 days ice-cooled, control without: 1.7): 18.4
- % Residual Activity (nitrile hydratase [1]; immobilized enzyme, 3 days ice-cooled, control without: 37): 95%
- Quant. of AA produced (%) after cells were left standing (nitrile hydratase [2]; immobilized cells left standing at 0° C. for 5 days in buffer with 5 g/l stabilizer, control without: 0.52): 0.93%
- Quant. of AA produced (%) before cells were left standing (nitrile hydratase [2]; immobilized cells, 1 g gel + 5 g acrylonitrile, 0° C., 20 minutes, control without: 0.88): 1.02%
- Activity Before Being Left Standing (nitrile hydratase [3]; cell extract from suspension mixed 1:1 with buffer (pH 6.5) containing 10 g/l ammonium isobutyrate, control without: 2.7 × 10^3): 2.9 × 10^3 U/ml
- Activity After Being Left Standing (nitrile hydratase [3]; cell extract, 3 days ice-cooled, control without: 1.0 × 10^3): 2.8 × 10^3 U/ml
- % Residual Activity (nitrile hydratase [3]; cell extract, 3 days ice-cooled, control without: 38): 94%
